Tested on: tumors expressing high levels of CYP3A4
Assay: Combination of Docataxel and an ICI in patients (21 day treatment cycle)
Format: in vivo
Procedure: The compound of formula IA (150 mg po qd) is administered to patients for the first 3 days of a 21 day treatment cycle. Escalating doses of Docataxel are administered IV beginning on day 4. Docataxel is dose-escalated at 15, 25, 40, and 50 mg/m^2, where the standard dose is 75 mg/m^2.

SMILES: CCCCCCN(CCCN(CC(C)C)S(=O)(=O)c1ccc2occc2c1)C(=O)OC(C)(C)C [IA]
- cancer cell kill in tumors expressing high levels of CYP3A4 (IA 150 mg po qd days 1-3, Docataxel IV from day 4): improves cancer cell kill
- toxicity of Docataxel (IA 150 mg po qd days 1-3, lower dose of docataxel and lower Cmax while maintaining AUC): diminishes toxicity
- variability in AUC and drug response of Docataxel (IA 150 mg po qd days 1-3 of 21 day cycle, Docataxel IV from day 4, 15-50 mg/m^2): decreases variability in AUC and drug response

From patent publication US20200289456A1, “METHODS FOR INHIBITING TUMORS AND DRUG RESISTANCE” (SEQUOIA PHARMACEUTICALS, INC., priority 2015, published 2020)
